Experimental data reported in patent publication EP4620466A1, “TRIMETHOXYSTYRYL DERIVATIVES FOR USE IN THE TREATMENT OF PACLITAXEL-RESISTANT CANCER” (Instituto de Investigación Biomédica de Salamanca De la …, priority 2024, dated 2025).

Each molecule was assayed on HeLa cells (assay: Cell proliferation assay (XTT), cytostatic activity). Settings: 72-h treatment, XTT cell proliferation kit.
Format: cell-based
Experimental: […] cells were seeded in 96-well plates and incubated in the presence or the absence of the indicated compounds at concentrations ranging from 10^-5 to 10^-12 M. The cytostatic activity was measured after 72-h treatments using the XTT (sodium 3'-[1-(phenylaminocarbonyl)-3,4-tetrazolium]-bis(4- methoxy-6-nitro)-benzenesulfonic acid hydrate) cell proliferation kit (Roche Molecular Biochemicals; Mannheim, Germany) following the manufacturer's specifications. Each condition was seeded in triplicate, and experiments were repeated three times to calculate IC values by non-linear regression fitting the data.
Molecule `COc1cc(C(=NO)c2ccc3c(ccn3C)c2)cc(OC)c1OC` (mixture of isomers) [Compound 7, (E/Z)-(I-Methyl-1H-indol-5-yl)(3,4,5-trimethoxyphenyl)methanone oxime] has an IC50 of 360 nM. “1-Methyl-5-(2,3,4- trimethoxybenzoyl)-1H-indole-3-carbonitrile [Compound 26]” was tested, and the IC50 was > 1000 nM. “1-Methyl-5-[1-(2,3,4-trimethoxyphenyl)vinyl]-1H-indol-3-ylmethanol [Compound 18]” gave an IC50 of 300 nM. In the case of `COc1cc(C(=NO)c2ccc3c(c2)c(C#N)cn3C)cc(SC)n1` [Compound 88], the IC50 is reported as > 1000 nM. “5-(N-(3,5-dimethoxyphenyl)sulfamoyl)-1-methyl-1H-indole-3-carboxamide [Compound 54]” was tested, and the IC50 was 1770 nM. For `COc1ccc(C(C)c2ccc3c(c2)c(C=NN)cn3C)c(OC)c1OC` (stereo not drawn) [Compound 22], the IC50 was 420 nM.

Same assay, conditions: Homo sapiens, 72-h treatment, XTT cell proliferation kit
`CSc1cc(C(=NO)c2ccc3c(c2)c(C#N)cn3C)cc(Cl)n1` (mixture of isomers) [Compound 69, (E/Z)-5-((2-chloro-6-(methylsulfanyl)pyridin-4-yl)(hydroxyimino)methyl)-1-methyl-1H-indole-3-carbonitrile] was tested, and the IC50 was 60 nM. Molecule `COc1cc(C(=O)c2ccc3c(c2)c(C#N)cn3C)cc(SC)n1` [Compound 87, 5-(2-methoxy-6-(methylsulfanyl)isonicotinoyl)-1-methyl-1H-indole-3-carbonitrile] has an IC50 of 800 nM. For `Cn1cc(C=NO)c2cc(C(=NO)c3cc(Cl)nc(Cl)c3)ccc21` [Compound 59, 5-((2,6-dichloropyridin-4-yl)(hydroxyimino)methyl)-1-methyl-1H-indole-3-carbaldehyde oxime], the IC50 was > 1000 nM. With `C=C(c1cc(Cl)nc(Cl)c1)c1ccc2c(c1)c(C(N)=O)cn2C` [Compound 63, 5-(1-(2,6-dichloropyridin-4-yl)vinyl)-1-methyl-1H-indole-3-carboxamide] the IC50 was 50 nM. With `C=C(c1cc(OC)nc(SC)c1)c1ccc2c(ccn2C)c1` [Compound 82, 5-(1-(2-methoxy-6-(methylsulfanyl)pyridin-4-yl)vinyl)-1-methyl-1H-indole] the IC50 was 600 nM. With `C=C(c1cc(Cl)nc(SC)c1)c1ccc2c(c1)c(C(N)=O)cn2C` [Compound 70, 5-(1-(2-chloro-6-(methylsulfanyl)pyridin-4-yl)vinyl)-1-methyl-1H indole-3-carboxamide] the IC50 was > 1000 nM. For `C=C(c1cc(Cl)nc(N(C)C)c1)c1ccc2c(c1)c(C=O)cn2C` [Compound 101, 5-(1-(2-chloro-6-(dimethylamino)pyridin-4-yl)vinyl)-1-methyl-1H-indole-3-carbaldehyde], the IC50 was > 1000 nM. Work on `C=C(c1cc(SC)nc(N(C)C)c1)c1ccc2c(c1)c(C(=O)O)cn2C` [Compound 94, 5-(1-(2-(dimethylamino)-6-(methylthio)pyridin-4-yl)vinyl)-1-methyl-1H-indole-3-carboxylic acid] yielded an IC50 of 700 nM. For `Cn1cc(C#N)c2cc(C(=NO)c3cc(Cl)nc(Cl)c3)ccc21` [Compound 60, 5-((2,6-dichloropyridin-4-yl)(hydroxyimino)methyl)-1-methyl-1H-indole-3-carbonitrile], the IC50 was > 1000 nM. With `CSc1cc(C(=O)c2ccc3c(ccn3C)c2)cc(Cl)n1` [Compound 64, (2-chloro-6-(methylthio)pyridin-4-yl)(1-methyl-1H-indol-5-yl)methanone] the IC50 was 300 nM. With `COc1ccc(C(=O)c2ccc3c(c2)c(C=O)cn3C)c(OC)c1OC` [Compound 10, 1-Methyl-5-(2,3,4-trimethoxybenzoyl)-1H-indole-3-carbaldehyde] the IC50 was 780 nM. Molecule `C=C(c1cc(OC)c(OC)c(OC)c1)c1ccc2c(c1)c(C=NN)cn2C` [Compound 21, (1-Methyl-5-[1-(3,4,5-trimethoxyphenyl)vinyl]-1H-indol-3-yl)methylene hydrazine] has an IC50 of 38 nM. `CSc1cc(C(=O)c2ccc3c(ccn3C)c2)cc(N(C)C)n1` [Compound 89, (2-(dimethylamino)-6-(methylthio)pyridin-4-yl)(1-methyl-1H-indol-5-yl)methanone] gave an IC50 of 500 nM. For `C=C(c1cc(Cl)nc(Cl)c1)c1ccc2c(c1)c(C=O)cn2C` [Compound 58, 5-(1-(2,6-dichloropyridin-4-yl)vinyl)-1-methyl-1H-indole-3-carbaldehyde], the IC50 was 200 nM. Molecule `CSc1cc(C(=NO)c2ccc3c(ccn3C)c2)cc(SC)n1` (mixture of isomers) [Compound 75, (E/Z)-(2,6-bis(methylsulfanyl)pyridin-4-yl) (1-methyl-1H-indol-5-yl)methanone oximes] has an IC50 of 500 nM. For `COc1cc(C(O)c2ccc3c(ccn3C)c2)cc(OC)c1OC` (stereo not drawn) [Compound 1, (1-methyl-1H-indol-5-yl)(3,4,5-trimethoxyphenyl)methanol], the IC50 was > 1000 nM. In the case of `C=C(c1cc(SC)nc(SC)c1)c1ccc2c(c1)c(C(N)=O)cn2C` [Compound 78, 5-(1-(2,6-bis(methylsulfanyl)pyridin-4-yl)vinyl)-1-methyl-1H-indole-3-carboxamide], the IC50 is reported as 600 nM. For `COc1cc(C(=O)c2ccc3c(c2)c(C(=O)O)cn3C)cc(OC)c1OC` [Compound 15, 1-Methyl-5-(3,4,5-trimethoxybenzoyl)-1H-indole-3-carboxylic acid], the IC50 was 7000 nM. `C=C(c1cc(OC)nc(SC)c1)c1ccc2c(c1)c(C(=O)O)cn2C` [Compound 86, 5-(1-(2-methoxy-6-(methylsulfanyl)pyridin-4-yl)vinyl)-1-methyl-1H-indole-3-carboxylic acid] was tested, and the IC50 was > 1000 nM. `C=C(c1cc(Cl)nc(SC)c1)c1ccc2c(c1)c(C=O)cn2C` [Compound 68, 5-(1-(2-chloro-6-(methylsulfanyl)pyridin-4-yl)vinyl)-1-methyl-1H-indole-3-carbaldehyde] showed an IC50 of 70 nM. Work on `C=C(c1cc(SC)nc(N(C)C)c1)c1ccc2c(ccn2C)c1` [Compound 90, N,N-dimethyl-4-(1-(1-methyl-1H-indol-5-yl)vinyl)-6-(methylthio)pyridin-2-amine] yielded an IC50 of 200 nM. Molecule `CSc1cc(C(=NO)c2ccc3c(c2)c(C#N)cn3C)cc(N(C)C)n1` [Compound 95, 5-((2-(dimethylamino)-6-(methylthio)pyridin-4-yl)(hydroxyimino)methyl)-1-methyl-1H-indole-3-carbonitrile] has an IC50 of 300 nM. With `C=C(c1cc(SC)nc(SC)c1)c1ccc2c(c1)c(C#N)cn2C` [Compound 79, 5-(1-(2,6-bis(methylsulfanyl)pyridin-4-yl)vinyl)-1-methyl-1H-indole-3-carbonitrile] the IC50 was 600 nM. Work on `C=C(c1cc(OC)c(OC)c(OC)c1)c1ccc2c(c1)c(C#N)cn2C` [Compound 23, 1-Methyl-5-[1-(3,4,5-trimethoxyphenyl)vinyl]-1H-indole-3-carbonitrile] yielded an IC50 of 2.9 nM. `COc1cc(C(C)c2ccc3c(ccn3C)c2)cc(OC)c1OC` (stereo not drawn) [Compound 13, 1-Methyl-5-(1-(3,4,5-trimethoxyphenyl)ethyl)-1H-indole] showed an IC50 of 0.64 nM. `COc1ccc(C(O)c2ccc3c(ccn3C)c2)c(OC)c1OC` (stereo not drawn) [Compound 2, (1-methyl-1H-indol-5-yl)(2,3,4-trimethoxyphenyl)methanol] was tested, and the IC50 was > 1000 nM. With `CSc1cc(C(=O)c2ccc3c(c2)c(C=O)cn3C)cc(Cl)n1` [Compound 67, 5-(2-Chloro-6-(methylsulfanyl)isonicotinoyl)-1-methyl-1H indole-3-carbaldehyde] the IC50 was > 1000 nM. `C=C(c1cc(OC)nc(SC)c1)c1ccc2c(c1)c(C=O)cn2C` [Compound 85, 5-(1-(2-methoxy-6-(methylsulfanyl)pyridin-4-yl)vinyl)-1-methyl-1H-indole-3-carbaldehyde] was tested, and the IC50 was 400 nM. `C=C(c1cc(SC)nc(N(C)C)c1)c1ccc2c(c1)c(C=O)cn2C` [Compound 93, 5-(1-(2-(dimethylamino)-6-(methylthio)pyridin-4-yl)vinyl)-1-methyl-1H-indole-3-carbaldehyde] showed an IC50 of 300 nM. In the case of `C=C(c1cc(SC)nc(SC)c1)c1ccc2c(c1)c(C(=O)O)cn2C` [Compound 80, 5-(1-(2,6-Bis(methylsulfanyl)pyridin-4-yl)vinyl)-1-methyl-1H-indole-3-carboxylic acid], the IC50 is reported as > 1000 nM. With `C=C(c1ccc2c(c1)c(C=O)cn2C)c1ccc(OC)c(OC)c1OC` [Compound 12, 1-Methyl-5-[1-(2,3,4-trimethoxyphenyl)vinyl]-1H-indole-3-2carbaldehyde] the IC50 was 32 nM. `CN(C)c1cc(C(=O)c2ccc3c(ccn3C)c2)cc(Cl)n1` [Compound 98, (2-chloro-6-(dimethylamino)pyridin-4-yl)(1-methyl-1H-indol-5-yl)methanone] was tested, and the IC50 was > 1000 nM. Work on `C=C(c1cc(SC)nc(SC)c1)c1ccc2c(ccn2C)c1` [Compound 74, 5-(1-(2,6-Bis(methylsulfanyl)pyridin-4-yl)vinyl)-1-methyl-1H-indole] yielded an IC50 of 500 nM. `CSc1cc(C(=O)c2ccc3c(ccn3C)c2)cc(SC)n1` [Compound 73, (2,6-Bis(methylsulfanyl)pyridin-4-yl) (1-methyl-1H-indol-5-yl)methanone] gave an IC50 of 200 nM. With `C=C(c1cc(Cl)nc(SC)c1)c1ccc2c(c1)c(C(=O)O)cn2C` [Compound 72, 5-(1-(2-Chloro-6-(methylsulfanyl)pyridin-4-yl)vinyl)-1-methyl-1H-indole-3-carboxylic acid] the IC50 was 80 nM. For `C=C(c1cc(OC)c(OC)c(OC)c1)c1ccc2c(c1)c(C=NO)cn2C` [Compound 19, 1-Methyl-5-[1-(3,4,5-trimethoxyphenyl)vinyl]-1H-indole-3-carbaldehyde oxime], the IC50 was 6.2 nM. Work on `C=C(c1cc(Cl)nc(N(C)C)c1)c1ccc2c(ccn2C)c1` [Compound 99, 6-chloro-N,N-dimethyl-4-(1-(1-methyl-1H-indol-5-yl)vinyl)pyridin-2-amine] yielded an IC50 of 100 nM. `C=C(c1ccc2c(c1)c(C#N)cn2C)c1ccc(OC)c(OC)c1OC` [Compound 24, 1-Methyl-5-[1-(2,3,4-trimethoxyphenyl)vinyl]-1H-indole-3-carbonitrile] was tested, and the IC50 was 32 nM. Molecule `COc1cc(C(=O)c2ccc3c(ccn3C)c2)cc(SC)n1` [Compound 81, (2-methoxy-6-(methylthio)pyridin-4-yl)(1-methyl-1H-indol-5-yl)methanone] has an IC50 of 200 nM.
